ChEMBL document CHEMBL4052689, “Discovery and optimization of 3-(4-aryl/heteroarylsulfonyl)piperazin-1-yl)-6-(piperidin-1-yl)pyridazines as novel, CNS penetrant pan-muscarinic antagonists” (Bioorg Med Chem Lett, 2017)
Calls of active or inactive are those of the source. The rule behind the calls is not given here.

Legend:
Liver [1] = experiment: Drug metabolism in rat liver microsomes assessed as metabolite F formation in presence of NADPH by UV and mass spectrometry; type: ADME, microsome
Liver [2] = experiment: Drug metabolism in human liver microsomes assessed as metabolite H formation in presence of NADPH by UV and mass spectrometry; type: ADME, microsome
Liver [3] = experiment: Drug metabolism in human liver microsomes assessed as metabolite G formation in presence of NADPH by UV and mass spectrometry; type: ADME, microsome
Liver [4] = experiment: Drug metabolism in human liver microsomes assessed as metabolite E formation in presence of NADPH by UV and mass spectrometry; type: ADME, microsome
Liver [5] = experiment: Drug metabolism in human liver microsomes assessed as metabolite D formation in presence of NADPH by UV and mass spectrometry; type: ADME, microsome
Liver [6] = experiment: Drug metabolism in human liver microsomes assessed as metabolite C formation in presence of NADPH by UV and mass spectrometry; type: ADME, microsome
Liver [7] = experiment: Drug metabolism in human liver microsomes assessed as metabolite A formation in presence of NADPH by UV and mass spectrometry; type: ADME, microsome
Liver [8] = experiment: Drug metabolism in human liver microsomes assessed as metabolite B formation in presence of NADPH by UV and mass spectrometry; type: ADME, microsome
Liver [9] = experiment: Drug metabolism in human liver microsomes in absence of NADPH by UV and mass spectrometry; type: ADME, microsome
Liver [10] = experiment: Drug metabolism in rat liver microsomes in absence of NADPH by UV and mass spectrometry; type: ADME, microsome
Liver [11] = experiment: Drug metabolism in human liver microsomes assessed as metabolite F formation in presence of NADPH by UV and mass spectrometry; type: ADME, microsome
Plasma [12] = experiment: Protein binding in human plasma; type: ADME, cell-free
Plasma [13] = experiment: Protein binding in rat plasma; type: ADME, cell-free
[14] = biological target: Muscarinic acetylcholine receptor M5 (Rattus norvegicus) (UniProt P08911); experiment: Antagonist activity at rat muscarinic M5 receptor assessed as acetylcholine-induced response by calcium mobilization assay; type: functional; set-up: Activity: scale not given: the % may be the effect or the level left
Sequence of Muscarinic acetylcholine receptor M5 (Rattus norvegicus) (P08911 whole entry): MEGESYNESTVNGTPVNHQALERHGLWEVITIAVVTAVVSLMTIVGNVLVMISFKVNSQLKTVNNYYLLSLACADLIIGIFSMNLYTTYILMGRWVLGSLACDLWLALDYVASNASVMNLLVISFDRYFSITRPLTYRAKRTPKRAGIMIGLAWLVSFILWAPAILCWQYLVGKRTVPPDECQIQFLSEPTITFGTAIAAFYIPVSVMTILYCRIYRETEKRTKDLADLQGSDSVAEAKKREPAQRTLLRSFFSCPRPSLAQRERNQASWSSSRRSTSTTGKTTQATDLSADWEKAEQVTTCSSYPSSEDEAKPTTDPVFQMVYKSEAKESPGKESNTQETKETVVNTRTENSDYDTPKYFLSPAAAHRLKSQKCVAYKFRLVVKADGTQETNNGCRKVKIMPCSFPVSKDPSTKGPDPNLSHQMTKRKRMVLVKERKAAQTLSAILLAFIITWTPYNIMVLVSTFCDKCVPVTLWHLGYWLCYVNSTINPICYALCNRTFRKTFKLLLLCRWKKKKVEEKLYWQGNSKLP

[15] = biological target: Muscarinic acetylcholine receptor M5 (Rattus norvegicus, UniProt P08911); experiment: Antagonist activity at rat muscarinic M5 receptor by calcium mobilization assay; type: functional
[16] = biological target: Muscarinic acetylcholine receptor M4 (Rattus norvegicus) (UniProt P08485); experiment: Antagonist activity at rat muscarinic M4 receptor assessed as acetylcholine-induced response by calcium mobilization assay; type: functional; set-up: scale not given: the % may be the effect or the level left
[17] = biological target: Muscarinic acetylcholine receptor M3 (Rattus norvegicus) (UniProt P08483); experiment: Antagonist activity at rat muscarinic M3 receptor assessed as acetylcholine-induced response by calcium mobilization assay; type: functional; set-up: scale not given: the % may be the effect or the level left
Sequence of Muscarinic acetylcholine receptor M3 (Rattus norvegicus) (P08483 whole entry, looked up): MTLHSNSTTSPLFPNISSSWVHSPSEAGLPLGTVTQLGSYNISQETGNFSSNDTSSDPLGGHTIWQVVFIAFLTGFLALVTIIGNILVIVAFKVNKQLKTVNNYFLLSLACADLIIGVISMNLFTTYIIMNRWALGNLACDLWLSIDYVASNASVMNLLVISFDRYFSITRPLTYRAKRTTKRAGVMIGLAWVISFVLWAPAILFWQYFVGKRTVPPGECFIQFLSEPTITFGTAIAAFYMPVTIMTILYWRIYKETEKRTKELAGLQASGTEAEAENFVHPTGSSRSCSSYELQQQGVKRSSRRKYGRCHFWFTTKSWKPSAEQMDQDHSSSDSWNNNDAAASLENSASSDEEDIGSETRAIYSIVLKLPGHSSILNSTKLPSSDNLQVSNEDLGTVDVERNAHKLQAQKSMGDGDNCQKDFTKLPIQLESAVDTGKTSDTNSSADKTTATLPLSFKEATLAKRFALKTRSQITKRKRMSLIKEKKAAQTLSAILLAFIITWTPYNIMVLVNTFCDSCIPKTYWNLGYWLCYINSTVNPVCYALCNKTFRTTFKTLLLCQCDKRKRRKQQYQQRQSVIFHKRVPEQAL

[18] = biological target: Muscarinic acetylcholine receptor M4 (Rattus norvegicus, UniProt P08485); experiment: (§1) Antagonist activity at rat muscarinic M4 receptor by calcium mobilization assay; type: functional
[19] = biological target: Muscarinic acetylcholine receptor M3 (Rattus norvegicus, UniProt P08483); experiment: (§2) Antagonist activity at rat muscarinic M3 receptor by calcium mobilization assay; type: functional
[20] = biological target: Muscarinic acetylcholine receptor M2 (Rattus norvegicus, UniProt P10980); experiment: (§3) Antagonist activity at rat muscarinic M2 receptor by calcium mobilization assay; type: functional
[21] = biological target: Muscarinic acetylcholine receptor M2 (Rattus norvegicus) (UniProt P10980); experiment: Antagonist activity at rat muscarinic M2 receptor assessed as acetylcholine-induced response by calcium mobilization assay; type: functional; set-up: scale not given: the % may be the effect or the level left
[22] = biological target: Muscarinic acetylcholine receptor M1 (Rattus norvegicus) (UniProt P08482); experiment: Antagonist activity at rat muscarinic M1 receptor assessed as acetylcholine-induced response by calcium mobilization assay; type: functional; set-up: scale not given: the % may be the effect or the level left
Sequence of Muscarinic acetylcholine receptor M1 (Rattus norvegicus) (P08482 whole entry): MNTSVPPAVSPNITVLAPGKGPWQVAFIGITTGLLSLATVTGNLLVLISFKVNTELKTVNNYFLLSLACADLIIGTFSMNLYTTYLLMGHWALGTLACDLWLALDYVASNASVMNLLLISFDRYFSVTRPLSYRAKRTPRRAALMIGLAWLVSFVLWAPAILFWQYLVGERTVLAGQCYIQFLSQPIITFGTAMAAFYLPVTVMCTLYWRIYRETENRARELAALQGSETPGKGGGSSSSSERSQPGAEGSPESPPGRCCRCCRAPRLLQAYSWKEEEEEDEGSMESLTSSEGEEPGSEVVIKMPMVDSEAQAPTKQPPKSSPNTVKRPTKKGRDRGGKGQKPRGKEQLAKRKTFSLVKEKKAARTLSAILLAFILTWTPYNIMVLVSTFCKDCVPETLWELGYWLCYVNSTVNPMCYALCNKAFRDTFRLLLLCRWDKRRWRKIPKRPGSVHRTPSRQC

[23] = biological target: Muscarinic acetylcholine receptor M1 (Rattus norvegicus, UniProt P08482); experiment: (§4) Antagonist activity at rat muscarinic M1 receptor by calcium mobilization assay; type: functional
[24] = biological target: Muscarinic acetylcholine receptor M2 and M4 (Homo sapiens) (UniProt P08173+P08172); experiment: Selectivity index, ratio of IC50 for human recombinant muscarinic M2 receptor to IC50 for human recombinant muscarinic M4 receptor
Homo sapiens [25] = organism: Homo sapiens; experiment: Selectivity index, ratio of IC50 for human recombinant muscarinic M3 receptor to IC50 for human recombinant muscarinic M4 receptor
Homo sapiens [26] = organism: Homo sapiens; experiment: Selectivity index, ratio of IC50 for human recombinant muscarinic M5 receptor to IC50 for human recombinant muscarinic M4 receptor
Homo sapiens [27] = organism: Homo sapiens; experiment: Selectivity index, ratio of IC50 for human recombinant muscarinic M1 receptor to IC50 for human recombinant muscarinic M4 receptor
[28] = biological target: T1, Muscarinic acetylcholine receptor M3 (Homo sapiens, UniProt P20309); experiment: Antagonist activity at human recombinant muscarinic M3 receptor expressed in CHO cells co-transfected with Gqi5 in presence of EC80 acetylcholine by calcium mobilization assay; type: functional, cell-based
Target sequence in this assay (P20309 whole entry): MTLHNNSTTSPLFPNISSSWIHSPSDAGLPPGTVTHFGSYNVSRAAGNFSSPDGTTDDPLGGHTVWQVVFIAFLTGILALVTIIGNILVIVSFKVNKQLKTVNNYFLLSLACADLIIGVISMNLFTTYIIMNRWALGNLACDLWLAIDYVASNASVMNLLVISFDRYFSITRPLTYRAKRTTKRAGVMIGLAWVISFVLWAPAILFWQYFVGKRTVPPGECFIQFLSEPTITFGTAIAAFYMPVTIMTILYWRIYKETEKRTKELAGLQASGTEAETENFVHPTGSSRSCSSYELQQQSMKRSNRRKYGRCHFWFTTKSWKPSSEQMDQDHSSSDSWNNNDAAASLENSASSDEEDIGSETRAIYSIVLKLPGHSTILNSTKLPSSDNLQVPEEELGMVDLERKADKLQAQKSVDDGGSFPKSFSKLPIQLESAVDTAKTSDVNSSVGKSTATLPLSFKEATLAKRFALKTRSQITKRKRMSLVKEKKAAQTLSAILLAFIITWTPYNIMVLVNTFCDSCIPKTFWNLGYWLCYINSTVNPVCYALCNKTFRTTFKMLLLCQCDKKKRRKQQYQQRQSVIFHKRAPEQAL

[29] = biological target: Muscarinic acetylcholine receptor M2 (Homo sapiens) (UniProt P08172); experiment: Antagonist activity at human recombinant muscarinic M2 receptor expressed in CHO cells co-transfected with Gqi5 assessed as acetylcholine-induced response in presence of EC80 acetylcholine by calcium mobilization assay relative to untreated control; type: functional, cell-based; set-up: scale not given: the % may be the effect or the level left
[30] = biological target: Muscarinic acetylcholine receptor M2 (Homo sapiens, UniProt P08172); experiment: Antagonist activity at human recombinant muscarinic M2 receptor expressed in CHO cells co-transfected with Gqi5 in presence of EC80 acetylcholine by calcium mobilization assay; type: functional, cell-based
[31] = biological target: Muscarinic acetylcholine receptor M1 (Homo sapiens) (UniProt P11229); experiment: Antagonist activity at human recombinant muscarinic M1 receptor expressed in CHO cells co-transfected with Gqi5 assessed as acetylcholine-induced response in presence of EC80 acetylcholine by calcium mobilization assay relative to untreated control; type: functional, cell-based; set-up: scale not given: the % may be the effect or the level left
Sequence of Muscarinic acetylcholine receptor M1 (Homo sapiens) (P11229 whole entry): as the sequence (P08482 whole entry) above, with V5A, S254T, S309P, K320R, G337A, V413I counted along it

[32] = biological target: Muscarinic acetylcholine receptor M1 (Homo sapiens, UniProt P11229); experiment: Antagonist activity at human recombinant muscarinic M1 receptor expressed in CHO cells co-transfected with Gqi5 in presence of EC80 acetylcholine by calcium mobilization assay; type: functional, cell-based
Sequence of Muscarinic acetylcholine receptor M1 (Homo sapiens, UniProt P11229) (P11229 whole entry): as the sequence (P08482 whole entry) above, with V5A, S254T, S309P, K320R, G337A, V413I counted along it

[33] = biological target: T2, Muscarinic acetylcholine receptor M4 (Homo sapiens) (UniProt P08173); experiment: Antagonist activity at human recombinant muscarinic M4 receptor expressed in CHO cells co-transfected with Gqi5 assessed as acetylcholine-induced response in presence of EC80 acetylcholine by calcium mobilization assay relative to untreated control; type: functional, cell-based; set-up: scale not given: the % may be the effect or the level left
T2 sequence (whole entry): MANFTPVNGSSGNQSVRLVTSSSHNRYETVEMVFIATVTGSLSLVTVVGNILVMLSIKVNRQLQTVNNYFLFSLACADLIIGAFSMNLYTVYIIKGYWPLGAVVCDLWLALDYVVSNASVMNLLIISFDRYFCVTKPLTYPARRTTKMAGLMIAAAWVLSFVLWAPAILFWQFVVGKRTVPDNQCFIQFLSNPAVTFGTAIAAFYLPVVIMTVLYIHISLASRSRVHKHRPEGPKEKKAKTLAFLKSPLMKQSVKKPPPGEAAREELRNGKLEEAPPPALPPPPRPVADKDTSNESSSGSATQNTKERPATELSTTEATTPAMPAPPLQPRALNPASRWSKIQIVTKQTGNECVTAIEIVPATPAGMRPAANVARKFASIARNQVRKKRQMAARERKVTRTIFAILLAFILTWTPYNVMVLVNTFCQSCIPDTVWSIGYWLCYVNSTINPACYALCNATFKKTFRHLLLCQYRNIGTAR

[34] = biological target: T3, Muscarinic acetylcholine receptor M4 (Homo sapiens, UniProt P08173); experiment: Antagonist activity at human recombinant muscarinic M4 receptor expressed in CHO cells co-transfected with Gqi5 in presence of EC80 acetylcholine by calcium mobilization assay; type: functional, cell-based
T3 sequence (P08173 whole entry): T2 sequence (whole entry)

[35] = biological target: Muscarinic acetylcholine receptor M5 (Homo sapiens, UniProt P08912); experiment: Antagonist activity at human recombinant muscarinic M5 receptor expressed in CHO cells co-transfected with Gqi5 in presence of EC80 acetylcholine by calcium mobilization assay; type: functional, cell-based
Sequence of Muscarinic acetylcholine receptor M5 (Homo sapiens, UniProt P08912) (P08912 whole entry): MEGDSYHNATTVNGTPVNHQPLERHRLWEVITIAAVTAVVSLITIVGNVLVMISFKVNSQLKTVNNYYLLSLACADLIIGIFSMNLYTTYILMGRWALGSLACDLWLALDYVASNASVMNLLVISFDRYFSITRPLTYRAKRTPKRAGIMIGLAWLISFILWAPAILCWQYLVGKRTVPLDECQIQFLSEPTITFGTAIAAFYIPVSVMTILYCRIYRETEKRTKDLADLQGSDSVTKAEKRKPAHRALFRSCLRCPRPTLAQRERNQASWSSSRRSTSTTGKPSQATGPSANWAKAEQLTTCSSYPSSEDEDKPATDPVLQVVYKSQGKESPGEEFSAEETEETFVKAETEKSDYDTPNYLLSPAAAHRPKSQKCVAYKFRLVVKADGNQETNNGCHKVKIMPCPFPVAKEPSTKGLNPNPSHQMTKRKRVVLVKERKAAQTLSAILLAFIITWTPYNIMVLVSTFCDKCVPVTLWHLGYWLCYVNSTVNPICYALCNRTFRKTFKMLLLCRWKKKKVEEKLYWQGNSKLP

[36] = biological target: Muscarinic acetylcholine receptor M5 (Homo sapiens) (UniProt P08912); experiment: Antagonist activity at human recombinant muscarinic M5 receptor expressed in CHO cells co-transfected with Gqi5 assessed as acetylcholine-induced response in presence of EC80 acetylcholine by calcium mobilization assay relative to untreated control; type: functional, cell-based; set-up: scale not given: the % may be the effect or the level left
Sequence of Muscarinic acetylcholine receptor M5 (Homo sapiens) (P08912 whole entry): as above

[37] = biological target: T1, Muscarinic acetylcholine receptor M3; experiment: Antagonist activity at human recombinant muscarinic M3 receptor expressed in CHO cells assessed as acetylcholine-induced response in presence of EC80 acetylcholine by calcium mobilization assay relative to untreated control; set-up: scale not given: the % may be the effect or the level left
Target sequence in this assay (P20309 whole entry, looked up): as the sequence (P20309 whole entry) above

[38] = Unbound brain-to-plasma concentration ratio in rat dosed as cassette dosing; type: ADME, organism-based
[39] = Brain to plasma permeability coefficient in rat dosed as cassette dosing; type: ADME, organism-based
Brain = experiment: Protein binding in rat brain homogenate assessed as unbound fraction; type: ADME, tissue-based
Plasma [40] = experiment: Protein binding in rat plasma assessed as unbound fraction; type: ADME, cell-free
Plasma [41] = experiment: Protein binding in human plasma assessed as unbound fraction; type: ADME, cell-free
[42] = biological target: T3, Muscarinic acetylcholine receptor M4; experiment: Displacement of [3H]NMS from human recombinant muscarinic M4 receptor expressed in CHO cell membranes
[43] = biological target: Muscarinic acetylcholine receptor M4 (Rattus norvegicus) (UniProt P08485); experiment: as §1; type: functional
[44] = biological target: Muscarinic acetylcholine receptor M3 (Rattus norvegicus) (UniProt P08483); experiment: as §2; type: functional
[45] = biological target: Muscarinic acetylcholine receptor M2 (Rattus norvegicus) (UniProt P10980); experiment: as §3; type: functional
[46] = biological target: Muscarinic acetylcholine receptor M1 (Rattus norvegicus) (UniProt P08482); experiment: as §4; type: functional

C[C@H]1CCCCN1c1ccc(N2CCN(S(=O)(=O)c3ccccc3Cl)CC2)nn1
Drug metabolism (Liver [1]): Metabolite_Detected
Drug metabolism (Liver [2]): Metabolite_Detected
Drug metabolism (Liver [3]): Metabolite_Detected
Drug metabolism (Liver [4]): Metabolite_Detected
Drug metabolism (Liver [5]): Metabolite_Detected
Drug metabolism (Liver [6]): Metabolite_Detected
Drug metabolism (Liver [7]): Metabolite_Detected
Drug metabolism (Liver [8]): Metabolite_Detected
Drug metabolism (Liver [9]): Metabolite_Notdetected
Drug metabolism (Liver [10]): Metabolite_Notdetected
Drug metabolism (Liver [11]): Metabolite_Detected
PPB (Plasma [12]): Active
PPB (Plasma [13]): Active
Activity [14]: 37%
IC50 [15]: > 10 µM
Activity [16]: 4.8%
Activity [17]: 40%
IC50 [18]: 1 µM
IC50 [19]: > 10 µM
IC50 [20]: 5.9 µM
Activity [21]: 7.1%
Activity [22]: 2.6%
IC50 [23]: 1.4 µM
Ratio IC50 [24]: 2.7 to 16
Ratio IC50 (Homo sapiens [25]): 2.7 to 16
Ratio IC50 (Homo sapiens [26]): 2.7 to 16
Ratio IC50 (Homo sapiens [27]): 2.7 to 16
IC50 [28]: 7 µM
Activity [29]: 2.9%
IC50 [30]: 1.2 µM
Activity [31]: 2.8%
IC50 [32]: 1.3 µM
Activity [33]: 4%
IC50 ([34]; read-out: IC50): 0.44 µM
IC50 ([34]; read-out: pIC50 (converted)): 0.427 µM
IC50 [35]: 6.5 µM
Activity [36]: 3.1%
Activity [37]: 4.3%

Cc1noc(C)c1S(=O)(=O)N1CCN(c2ccc(N3CCCC(C)(C)C3)nn2)CC1
K(p,uu,brain) [38]: 1.1
Kp [39]: 2.1
Fu (Brain): 0.04
Fu (Plasma [40]): 0.07
Fu (Plasma [41]): 0.08
Ki [42]: 0.00778 µM
inhibition [14]: Active
inhibition [43]: Active
inhibition [44]: Active
inhibition [45]: Active
inhibition [46]: Active
IC50 [28]: 0.782 µM
Activity [29]: 17%
IC50 [30]: 0.352 µM
Activity [31]: 11%
IC50 [32]: 0.288 µM
Activity [33]: 12%
IC50 ([34]; read-out: IC50): 0.12 µM
IC50 ([34]; read-out: pIC50 (converted)): 0.11 µM
IC50 [35]: 1.03 µM
Activity [36]: 43%
Activity [37]: 55%
